Consider six compounds from US20230348373A1, “DEUTERATED DERIVATIVES OF 6,8-BIS(BENZYLSULFANYL)OCTANOIC ACID” (Rafael Pharmaceuticals, Inc., priority 2019, published 2023).

For data set [1] the following is noted: after IV dosing; Pardee et al. 2014; cited from earlier work.
Data set [2] concerns Panc-1 pancreatic cancer cell line. Description: Cell viability (Cell Titer-Glo) in Panc-1 cells. Format: cell-based. The settings on record: Homo sapiens, replete media, 48 h incubation, 24 h recovery; for IC50: first value of IC50/IC90; for IC90: second value of IC50/IC90. The procedure: (§1) Biological activity was assessed in vitro in the following pancreatic cancer and colorectal cancer cell lines. • Pancreatic cancer cell lines • Panc-1: non-metastatic; mutations: KRAS, TP53 • AsPC-1: metastatic; mutations: KRAS, TP53, CDKN2A, MAP2K4 • Colorectal cancer cell lines • LoVo: metastatic; mutations: APC, KRAS, FBXW7, […] • SW620: metastatic; mutations: KRAS, TP53
(§2) Tumor cells were maintained at 37° C. in a humidified 5% CO2 atmosphere in T75 tissue culture flask containing 10 mL of RPMI 1640 (PANC-1), DMEM (AsPC-1), F12K (LoVo) or L15 (SW620), containing 2 mM L-glutamine, 10% fetal bovine serum (FBS) and 1% penicillin and streptomycin. The tumor cells were split at a ratio of 1:5 every 4-5 days by trypsinization and suspended in fresh medium in a new flask. Cells were harvested for experiments at 80-95% confluency.
(§3) PANC-1 cells in RPMI medium with 10% FBS (12,000 cells/well in 96 well plate) were incubated with increasing concentrations (12.5, 25, 50, 100, 150, and 200 µM), of test compound at 37° C. under 5% CO2 for 48 hours. Cells were undergone for another 24 hr recovery, in fresh RPMI media without serum. Cell viability was assessed using the Promega Cell Titer-Glo assay kit, following their protocol. Cell viability was measured based on the amount of ATP produced by the total number of cells present in each well using FLUOSTAR OPTIMA plate reader in the Luminescence mode. Production of ATP in Luminescence unit is directly proportional to the number of live cells. % live cells were calculated and SEM was also calculated as average of 3 replica wells.

The subject of data set [3] is LoVo colorectal cancer cell line. In words: Cell viability (Cell Titer-Glo) in LoVo cells. Format: cell-based. The settings on record: Homo sapiens, replete media, 48 h incubation, 24 h recovery; for IC50: first value of IC50/IC90; for IC90: second value of IC50/IC90. As for the experimental part: as §1, §2, §3
(§4) Test compounds were screened for activity in AsPC-1 cells and the colon cancer cells using similar procedures but replacing RPMI with the respective media indicated above for the initial 48 hour incubation (i.e., DMEM (AsPC-1), F12K ( LoVo ), or L15 (SW620)), and RPMI was always used for the 24 hour recovery. Cells seeded for AsPc-1 (25,000 cells/well), LoVo (25,000 cells/well) and SW620 (25,000 cells/well) to achieve ~ 50% confluency after 24 hrs of seeding.

For data set [4], the system named is SW620 colorectal cancer cell line. In words: Cell viability (Cell Titer-Glo) in SW620 cells. Format: cell-based. As to conditions: Homo sapiens, SW-620, replete media, 48 h incubation, 24 h recovery; for IC50: first value of IC50/IC90. As for the experimental part:
as §1, §2, §3, §4

The subject of data set [5] is AsPC-1 pancreatic cancer cell line. Description: Cell viability (Cell Titer-Glo) in AsPC-1 cells. The data set is classed as cell-based. As to conditions: Homo sapiens, ASPC1, replete media, 48 h incubation, 24 h recovery; for IC50: first value of IC50/IC90. The procedure:
as §1, §2, §3, §4

On to `O=C(O)CCCCC(CCSCc1ccccc1)SCc1ccccc1` (centres unmarked) [CPI-613, 6,8-bis(benzylsulfanyl)octanoic acid], for which the half-life in data set [1] is 1 to 2 h.

On to `[2H]C([2H])(CCC(CCSCc1ccccc1)SCc1ccccc1)CC(=O)O` (centres unmarked) [Compound I-10, 6,8-bis(benzylsulfanyl)-3,3-dideuterio-octanoic acid], for which the IC50 in data set [2] and in data set [3] was above 300 µM throughout.

As for `[2H]C([2H])(CC(=O)O)C([2H])([2H])CC(CCSCc1ccccc1)SCc1ccccc1` (centres unmarked) [Compound I-24, 6,8-bis(benzylsulfanyl)-3,3,4,4-tetradeuterio-octanoic acid], the IC50 in data set [2] and in data set [3] was above 300 µM in each case.

`[2H]C(O)(CCC(CCSCc1ccccc1)SCc1ccccc1)CC(=O)O` (centres unmarked) [Compound I-77]: the 50% inhibitory concentration (IC50) in data set [4] was above 300 µM; in data set [2], above 300 µM; in data set [3], above 300 µM; in data set [5], 314 µM.

Regarding `[2H]C(O)(CCC(CCSCc1ccccc1)SCc1ccccc1)CC(N)=O` (centres unmarked) [Compound I-78], the IC50 in data set [4] amounted to 28 µM; in data set [3], 26 µM; in data set [5], 28 µM. In addition, the IC90 was 37 µM in data set [4] (second value of IC50/IC90), 73 µM in data set [2], 39 µM in data set [3] and 65 µM in data set [5] (second value of IC50/IC90).

For the compound `[2H]C(O)(CCC(CCSCc1ccccc1)SCc1ccccc1)CC(=O)N1CCNCC1` (centres unmarked) [Compound I-79], in data set [2], the IC50 was 44 µM and it took 282 µM to reach the 90% level (IC90). In data set [3], this compound yielded an IC50 of 181 µM and an IC90 of 254 µM.
